Experimental data as given in patent US8791144B2, “Substituted N-phenyl-1-(4-Pyridinyl)-1H-pyrazol-3-amines” (Janssen Pharmaceutica NV, priority 2009, dated 2014).

Tests used:
hα7-wt nAChR [1] = target: T1, hα7-wt nAChR (Homo sapiens, UniProt P36544); assay: Ca2+ flux imaging (FDSS): potentiation of the choline response; format: cell-based; conditions: Ca2+ assay as described in D.1, potentiation of choline response, hα7-wt nAChR; for EC50: read-out: Potency (pEC50) (converted)
Description: • a) Assay Buffer • Hanks buffered saline solution (HBSS, Invitrogen, Belgium), supplemented with 10 mM HEPES (Invitrogen, Belgium), CaCl2 to a final concentration of 5 mM, 0.1% Bovine serum albumin (Sigma-Aldrich NV, Belgium). • b) Calcium-Sensitive Dye—Fluo-4AM • Fluo-4AM (Molecular Probes, USA) was dissolved in DMSO containing 10% Pluronic acid (Molecular Probes, USA) to give a stock solution which was diluted in assay buffer supplemented with 5 mM probenicid (Sigma, Aldrich NV, Belgium) to give a final concentration of 2 μM. • c) 384-Well Plates • Black 384 well plate black/clear plates, PDL pre-coated (Corning, Incorporated, USA) • d) Calcium Flux Measurement • A Functional drug screening system (FDSS, Hamamatsu) was used to measure intracellular free-calcium flux signals. Method
Monolayers of hα7-wt nAChR-expressing cells were grown in multi-well plates, in particular black-sided, transparent bottomed 384 well plates coated with poly-D-lysine for 24 hours prior to loading with a fluorescent calcium indicator, in a particular embodiment loading with fluo-4AM for up to 120 minutes.
PAM activity was detected in real time by applying the compounds to be tested to the loaded cells along with a α7 nicotinic receptor agonist during constant monitoring of cellular fluorescence in a FDSS. Compounds giving peak fluorescent responses greater than the response due to agonist alone, were considered to be α7 nAChR PAM's. In a particular embodiment, the α7 nicotinic receptor agonist was choline, a more particular embodiment choline applied at a sub-maximal concentration of 100 μM. In a further setting of the present invention the compounds to be tested were applied prior to the α7 nicotinic receptor agonist, in a particular embodiment up to 10 minutes prior to the agonist.
A control response to choline was calculated on each plate from the difference in peak in fluorescence in wells receiving either choline or assay buffer alone. Compounds of the present invention were tested at a concentration range from 0.01 μM to 30 μM. Compounds were considered to have an interesting activity when they potentiated the choline signal at least with 200% when tested at a concentration of 30 μM (the efficacy of 100 μM choline was defined as 100% in the absence of a PAM). An EC50 (or pEC50) was determined as a concentration relating to half the maximal effect, when a clear sigmoidal curve with top plateau was obtained.

hα7-wt nAChR [2] = target: T1, hα7-wt nAChR; assay: Patch-clamp current recording (whole-cell voltage clamp), potentiation of choline current and PAM type; format: cell-based; design: key: Type 0 compounds minimally enhance the effect size of the current elicited by 1 mM choline.; Type 1 compounds enhance the effect size of the current elicited by 1 mM choline but minimally alter the kinetics of the receptor.; Type 2 compounds enhance the effect size of the current elicited by 1 mM choline while reducing the rate and/or the extent of desensitization.; Type 3 compounds enhance the effect size of the current elicited by 1 mM choline. When tested at higher concentrations up to 10 μM they completely inhibit desensitization, in particular a 1 mM choline application of 250 milliseconds.; Type 4 compounds allow for an initial desensitization of the receptor followed by a re-opening of the receptor during agonist application; conditions: hα7-wt nAChR-expressing GH4C1 cells, 1 mM choline
Description: The compounds of the present invention are classified as type 0-4, based on qualitative kinetic properties, as determined by whole-cell voltage-clamp recordings. This classification is based on the effect of an α7 PAM compound, as described hereinbefore, on the signal elicited by an agonist application. In particular, said agonist is choline at a concentration of 1 mM. In a preferred experimental setting, said α7 PAM compound and choline are simultaneously applied to the cell, as described hereinafter. Desensitization is defined as the closure of the receptor upon activation during the application of the agonist in whole-cell voltage-clamp electrophysiology measurements seen as the reduction of the […] current after initial activation by the agonist.
The definition of the PAM types 0-4 is described hereinafter: • Type 0 compounds minimally enhance the effect size of the current elicited by 1 mM choline. • Type 1 compounds enhance the effect size of the current elicited by 1 mM choline but minimally alter the kinetics of the receptor. In particular, the rate and the extent of desensitization, elicited by the agonist, is not affected. The compound-modulated response to 1 mM choline, therefore, is a close to linear scaling of the 1 mM choline response in absence of the α7 PAM compound. • Type 2 compounds enhance the effect size of the current elicited by 1 mM choline while reducing the rate and/or the extent of desensitization. • Type 3 compounds enhance the effect size of the current elicited by 1 mM choline. […] At low-potency concentrations of the α7 PAM compound, the agonist-induced activation, which is followed by desensitization, can still be separated from the compound-induced re-opening as an initial inward current-maximum. At higher potency concentrations of the α7 PAM compound, the re-opening occurs faster than the closure due to desensitization so that the initial current-maximum disappears.
A compound was considered to have interesting PAM-like activity when the potentiation of the peak current was at least 200% compared to the control choline response (=100%). Such compounds are classified as belonging to a particular PAM type in the Experimental Part. Compounds not meeting the condition are not classified as belonging to a particular PAM-type.
The compounds also have a potentiating effect on the response to choline when measured by whole-cell patch clamp electrophysiology in GH4C1 cells stably over-expressing the human wild-type α7 receptor.
Patch-clamp recording from mammalian cells has provided a powerful means of assessing the function of membrane-bound proteins thought to be subunits of ligand-gated ion channels. Activation of such proteins by endogenous or exogenous ligands cause opening of a pore associated with the receptor through which ions flow down their electrochemical gradient. In the case of the hα7-wt nAChR-expressing GH4C1 recombinant cell line the preferential permeability to calcium of this receptor means that calcium flows into the cell upon activation by ACh, choline and other nicotinic ligands giving rise to a calcium current. Since this receptor rapidly desensitizes in the presence of agonist it is important an application system is used which is capable of very rapid switching of solutions (<100 ms) to prevent partial or full desensitisation of receptor responses coincident with the time of agonist application. Consequently, a second convenient technique to assess the enhancement of nicotinic efficacy is patch-clamp recording from hα7-wt nAChR-expressing GH4C1 cells coupled with a rapid-application system.
• a) Assay Buffers • The external recording solution consisted of 152 mM NaCl, 5 mM KCl, 1 mM MgCl2, 1 mM Calcium, 10 mM HEPES; pH 7.3. […]

T1 sequence (P36544 23-502): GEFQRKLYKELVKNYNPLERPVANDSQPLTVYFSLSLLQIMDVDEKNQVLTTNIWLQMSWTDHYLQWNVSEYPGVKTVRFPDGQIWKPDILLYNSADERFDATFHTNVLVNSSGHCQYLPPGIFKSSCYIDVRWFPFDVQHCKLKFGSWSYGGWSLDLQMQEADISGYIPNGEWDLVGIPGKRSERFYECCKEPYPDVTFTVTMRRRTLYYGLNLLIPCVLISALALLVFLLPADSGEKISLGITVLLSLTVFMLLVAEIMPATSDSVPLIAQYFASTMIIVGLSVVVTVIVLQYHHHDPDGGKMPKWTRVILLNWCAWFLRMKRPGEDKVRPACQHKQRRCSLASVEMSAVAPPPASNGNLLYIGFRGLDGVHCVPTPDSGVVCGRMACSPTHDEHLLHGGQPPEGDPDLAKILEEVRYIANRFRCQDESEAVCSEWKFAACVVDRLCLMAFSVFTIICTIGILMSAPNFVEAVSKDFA

## COc1cc(Cl)cc(Nc2cc(CC(=O)NCC3CC3)n(-c3ccnc(C)c3)n2)c1 [Compound 81, 3-[(3-chloro-5-methoxyphenyl)amino]-N-(cyclopropylmethyl)-1-(2-methyl-4-pyridinyl)-1H-pyrazole-5-acetamide]
hα7-wt nAChR [1]
  EC50: 0.148 µM
hα7-wt nAChR [2]
  PAM type: 0
other
  melting point: 248.7 °C

## CC[C@H](O)Cc1cc(Nc2cccc(OC(F)(F)F)c2)nn1-c1ccnc(C)c1 [Compound 106, (alphaS)-alpha-ethyl-1-(2-methyl-4-pyridinyl)-3-[[3-(trifluoromethoxy)phenyl]amino]-1H-pyrazole-5-ethanol]
hα7-wt nAChR [1]
  EC50: 1.82 µM
hα7-wt nAChR [2]
  PAM type: 2
other
  melting point: 147.3 °C

## CC[C@H](O)Cc1cc(Nc2cccc(C(F)(F)F)c2)nn1-c1ccnc(C)c1 [Compound 37, (alphaS)-alpha-ethyl-1-(2-methyl-4-pyridinyl)-3-[[3-(trifluoromethyl)phenyl]amino]-1H-pyrazole-5-ethanol]
hα7-wt nAChR [1]
  EC50: 2.29 µM
hα7-wt nAChR [2]
  PAM type: 2
other
  melting point: 169.5 °C

## CCNC(=O)Cc1cc(Nc2cccc(OC(F)(F)F)c2)nn1-c1ccnc(C)c1 [Compound 113, N-ethyl-1-(2-methyl-4-pyridinyl)-3-[[3-(trifluoromethoxy)phenyl]amino]-1H-pyrazole-5-acetamide]
hα7-wt nAChR [1]
  EC50: 1.15 µM
hα7-wt nAChR [2]
  PAM type: 3
other
  melting point: 210.3 °C

## Cc1cc(-n2nc(Nc3ccc(F)c(F)c3)cc2CC(=O)NCC2CC2)ccn1 [Compound 29, N-(cyclopropylmethyl)-3-[(3,4-difluorophenyl)amino]-1-(2-methyl-4-pyridinyl)-1H-pyrazole-5-acetamide]
hα7-wt nAChR [1]
  EC50: 0.692 µM
hα7-wt nAChR [2]
  PAM type: 2
other
  melting point: 230.3 °C

## CC[C@@H](O)Cc1cc(Nc2cccc(C(F)(F)F)c2)nn1-c1ccnc(C)c1 [Compound 35, (alphaR)-alpha-ethyl-1-(2-methyl-4-pyridinyl)-3-[[3-(trifluoromethyl)phenyl]amino]-1H-pyrazole-5-ethanol]
hα7-wt nAChR [1]
  EC50: 0.692 µM
hα7-wt nAChR [2]
  PAM type: 2
other
  melting point: 170 °C

## Cc1cc(-n2nc(Nc3cccc(Cl)c3F)cc2CC(=O)NC2CC2)ccn1 [Compound 76, 3-[(3-chloro-2-fluorophenyl)amino]-N-cyclopropyl-1-(2-methyl-4-pyridinyl)-1H-pyrazole-5-acetamide]
hα7-wt nAChR [1]
  EC50: 1.1 µM
hα7-wt nAChR [2]
  PAM type: 3
other
  melting point: 192.6 °C

## CNC(=O)Cc1cc(Nc2cccc(OC(F)(F)F)c2)nn1-c1ccnc(C)c1 [Compound 111, N-methyl-1-(2-methyl-4-pyridinyl)-3-[[3-(trifluoromethoxy)phenyl]amino]-1H-pyrazole-5-acetamide]
hα7-wt nAChR [1]; read-out: % Efficacy
  Emax: 822%
hα7-wt nAChR [1]
  EC50: 2.29 µM
hα7-wt nAChR [2]
  PAM type: 2
other
  melting point: 231.5 °C

## CC[C@H](O)Cc1cc(Nc2cccc(Cl)c2F)nn1-c1ccnc(C)c1 [Compound 58, (alphaS)-3-[(3-chloro-2-fluorophenyl)amino]-alpha-ethyl-1-(2-methyl-4-pyridinyl)-1H-pyrazole-5-ethanol]
hα7-wt nAChR [1]
  EC50: 2.51 µM
hα7-wt nAChR [2]
  PAM type: 1
other
  melting point: 168.2 °C

## Cc1cc(-n2nc(Nc3ccc(F)c(F)c3)cc2COCc2ccccc2)ccn1 [Compound 31, N-(3,4-difluorophenyl)-1-(2-methyl-4-pyridinyl)-5-[(phenylmethoxy)methyl]-1H-pyrazol-3-amine]
hα7-wt nAChR [1]
  EC50: 1.15 µM
hα7-wt nAChR [2]
  PAM type: 0
other
  melting point: 171 °C

## Cc1cc(-n2nc(Nc3cccc(OC(F)(F)F)c3)cc2CC(=O)NC(C)C)cc(C)n1 [Compound 116, 1-(2,6-dimethyl-4-pyridinyl)-N-(1-methylethyl)-3-[[3-(trifluoromethoxy)phenyl]amino]-1H-pyrazole-5-acetamide]
hα7-wt nAChR [1]
  EC50: 0.245 µM
hα7-wt nAChR [2]
  PAM type: 2
other
  melting point: 229.1 °C

## CNC(=O)Cc1cc(Nc2cccc(OC(F)(F)F)c2)nn1-c1cc(C)nc(C)c1 [Compound 112, 1-(2,6-dimethyl-4-pyridinyl)-N-methyl-3-[[3-(trifluoromethoxy)phenyl]amino]-1H-pyrazole-5-acetamide]
hα7-wt nAChR [1]
  EC50: 1.29 µM
hα7-wt nAChR [2]
  PAM type: 2
other
  melting point: 222 °C

## CCNC(=O)Cc1cc(Nc2cc(Cl)cc(OC)c2)nn1-c1ccnc(C)c1 [Compound 74, 3-[(3-chloro-5-methoxyphenyl)amino]-N-ethyl-1-(2-methyl-4-pyridinyl)-1H-pyrazole-5-acetamide]
hα7-wt nAChR [1]
  EC50: 0.776 µM
hα7-wt nAChR [2]
  PAM type: 4
other
  melting point: 224 °C

## Cc1cc(-n2nc(Nc3cccc(OC(F)(F)F)c3)cc2CC(=O)NC(C)C)ccn1 [Compound 115, N-(1-methylethyl)-1-(2-methyl-4-pyridinyl)-3-[[3-(trifluoromethoxy)phenyl]amino]-1H-pyrazole-5-acetamide]
hα7-wt nAChR [1]
  EC50: 0.389 µM
hα7-wt nAChR [2]
  PAM type: 1
other
  melting point: 228.3 °C

## COc1cc(Nc2cc(CC(=O)NCC3CC3)n(-c3ccnc(C)c3)n2)cc(C(F)(F)F)c1 [Compound 5, N-(cyclopropylmethyl)-3-[[3-methoxy-5-(trifluoromethyl)phenyl]amino]-1-(2-methyl-4-pyridinyl)-1H-pyrazole-5-acetamide]
hα7-wt nAChR [1]
  EC50: 0.0759 µM
hα7-wt nAChR [2]
  PAM type: 4
other
  melting point: 228.3 °C

## CC[C@H](O)Cc1cc(Nc2ccc(F)c(F)c2F)nn1-c1ccnc(C)c1 [Compound 18, (alphaS)-alpha-ethyl-1-(2-methyl-4-pyridinyl)-3-[(2,3,4-trifluorophenyl)amino]-1H-pyrazole-5-ethanol]
hα7-wt nAChR [1]
  EC50: 2.4 µM
hα7-wt nAChR [2]
  PAM type: 1
other
  melting point: 149.1 °C
